The test in a line: Effective concentration against release of [Ca2+] ions from sea urchin egg. The test is classed as functional.

SMILES strings stand for the structures. pEC50: −log10 of the molar value.

The term pEC50 denotes the EC50 on a negative log10 scale, so that one unit is a factor of ten. A lower pEC50 goes with a high EC50.

Consider `N=c1c2ncn3c2ncn1C1OC(COP(=O)(O)CP(=O)(O)OC[C@H]2OC3[C@H](O)C2O)[C@@H](O)[C@H]1O` (single isomer, unassigned), for which the negative-log EC50 (pEC50) is 6.07.

`N=c1c2ncn3c2ccn1C1OC(COP(=O)(O)CP(=O)(O)OC[C@H]2OC3[C@H](O)C2O)[C@@H](O)[C@H]1O` (single isomer, unassigned) had a negative-log EC50 (pEC50) of 6.52.

These data come from ChEMBL document CHEMBL1139548, “Cyclic ADP-ribose analogues containing the methylenebisphosphonate linkage: effect of pyrophosphate modifications on Ca2+ release activity” (J Med Chem, 2005).
